Experimental findings from patent publication US20210323950A1, “HERBICIDALLY ACTIVE BICYCLIC BENZOYLPYRAZOLES” (Bayer Aktiengesellschaft, priority 2018, published 2021) are described below.

The structures appear in SMILES notation.

Format in all cases: in vivo
Assay [1] concerns Viola tricolor (VIOTR). Description: Post-emergence herbicidal action against VIOTR. Conditions: 20 g/ha, post-emergence at one-leaf stage, rated visually after about 3 weeks vs untreated controls. Here is the method:
(§1) VIOTR: Viola tricolor 2. Post-Emergence Herbicidal Action and Crop Plant Compatibility Seeds of monocotyledonous and dicotyledonous weeds and crop plants are placed in sandy loam in plastic or organic planting pots, covered with soil and cultivated in a greenhouse under controlled growth conditions. 2 to 3 weeks after sowing, the test plants are treated at the one-leaf stage. The compounds of the invention, formulated in the form of wettable powders (WP) or as emulsion concentrates (EC), are then sprayed onto the green parts of the plants as aqueous suspension or emulsion with addition of 0.5% additive at a water application rate of […] (converted). After the test plants had been kept in the greenhouse under optimum growth conditions for about 3 weeks, the activity of the preparations is rated visually in comparison to untreated controls. The tables below show the herbicidal activity of numerous compounds according to the invention against important harmful plants. For example, 100% activity=the plants have died, 0% activity=like control plants.

For assay [2], the system named is Amaranthus retroflexus (AMARE). Nature of the assay: Pre-emergence herbicidal action against AMARE. The note with it: scored visually after about 3 weeks vs untreated controls. The text has this: (§2) AMARE: Amaranthus retroflexus 1. Pre-Emergence Herbicidal Action and Crop Plant Compatibility Seeds of monocotyledonous and dicotyledonous weed plants and crop plants are placed in plastic or organic planting pots and covered with soil. The compounds of the invention, formulated in the form of wettable powders (WP) or as emulsion concentrates (EC), are then applied onto the surface of the covering soil as aqueous suspension or emulsion with addition of 0.5% additive at a water application rate of […] (converted). After the treatment, the pots are placed in a greenhouse and kept under good growth conditions for the trial plants. After about 3 weeks, the effect of the preparations is scored visually in comparison with untreated controls as percentages. The tables below show the herbicidal activity of numerous compounds according to the invention against important harmful plants. For example, 100% activity=the plants have died, 0% activity=like control plants.

The test system of assay [3] is Stellaria media (STEME). Description: Post-emergence herbicidal action against STEME. The note with it: 20 g/ha, post-emergence at one-leaf stage, rated visually after about 3 weeks vs untreated controls. Here is the method: as §1, with “STEME: Stellaria media” for “VIOTR: Viola tricolor”
In assay [4] the test system is Veronica persica (VERPE). Nature of the assay: Pre-emergence herbicidal action against VERPE. Conditions: 80 g/ha, scored visually after about 3 weeks vs untreated controls.
Description: as §2, with “VERPE: Veronica persica” for “AMARE: Amaranthus retroflexus”

The test system of assay [5] is Stellaria media (STEME). Nature of the assay: Pre-emergence herbicidal action against STEME. Conditions: 80 g/ha, scored visually after about 3 weeks vs untreated controls.
Description: as §2, with “STEME: Stellaria media” for “AMARE: Amaranthus retroflexus”

For assay [6], the system named is Amaranthus retroflexus (AMARE). Nature of the assay: Post-emergence herbicidal action against AMARE. Conditions: 20 g/ha, post-emergence at one-leaf stage, rated visually after about 3 weeks vs untreated controls. Here is the method:
as §1, with “AMARE: Amaranthus retroflexus” for “VIOTR: Viola tricolor”

Assay [7] has as its system Veronica persica (VERPE). Nature of the assay: Post-emergence herbicidal action against VERPE. The note with it: 20 g/ha, post-emergence at one-leaf stage, rated visually after about 3 weeks vs untreated controls. Here is the method: as §1, with “VERPE: Veronica persica” for “VIOTR: Viola tricolor”
In assay [8] the test system is Echinochloa crus-galli (ECHCG). Description: Post-emergence herbicidal action against ECHCG. The note with it: 20 g/ha, post-emergence at one-leaf stage, rated visually after about 3 weeks vs untreated controls. Here is the method:
as §1, with “ECHCG: Echinochloa crus-galli” for “VIOTR: Viola tricolor”

Assay [9] relates to Setaria viridis (SETVI). Nature of the assay: Post-emergence herbicidal action against SETVI. Conditions: 20 g/ha, post-emergence at one-leaf stage, rated visually after about 3 weeks vs untreated controls. Here is the method: as §1, with “SETVI: Setaria viridis” for “VIOTR: Viola tricolor”
Assay [10] deals with Abutilon theophrasti (ABUTH). Nature of the assay: Post-emergence herbicidal action against ABUTH. The note with it: 20 g/ha, post-emergence at one-leaf stage, rated visually after about 3 weeks vs untreated controls. Here is the method:
as §1, with “ABUTH: Abutilon theophrasti” for “VIOTR: Viola tricolor”

On to `Cn1nc(CCC(F)(F)F)c(C(=O)c2ccc(C(F)(F)F)c3c2OCS3)c1O` [Example 1-127], for which, in assay [1], the “Post-emergence action against VIOTR” value came to 80%.

As for `Cn1ncc(C(=O)c2ccc(C(F)(F)F)c3c2SCS3(=O)=O)c1O` [Example 1-85], the “Pre-emergence action against AMARE” value in assay [2] (80 g/ha) is given as 100%. Also, the “Post-emergence action against STEME” value in assay [3] is given as 80%. Further, in assay [4], the “Pre-emergence action against VERPE” value is 90%. Further, in [5], the “Pre-emergence action against STEME” value was 100%. Moreover, in assay [6], the “Post-emergence action against AMARE” value was determined as 90%. Further, the “Post-emergence action against VERPE” value in assay [7] is 80%.

As for `CCn1ncc(C(=O)c2ccc(C(F)(F)F)c3c2OCS3)c1O` [Example 1-18], in [8], the “Post-emergence action against ECHCG” value is given as 80%. Also, the “Pre-emergence action against AMARE” value in assay [2] (320 g/ha) was found to be 100%. Moreover, the “Post-emergence action against STEME” value in assay [3] is reported as 90%. Moreover, the “Post-emergence action against SETVI” value in [9] is given as 80%. In addition, the “Post-emergence action against VIOTR” value in assay [1] was 100%. Moreover, the “Post-emergence action against ABUTH” value in [10] came out at 80%.

For the compound `Cc1nn(C)c(O)c1C(=O)c1ccc(C(F)(F)F)c2c1SCS2` [Example 1-68], in assay [8], the “Post-emergence action against ECHCG” value is given as 80%. Moreover, in assay [2] (80 g/ha), the “Pre-emergence action against AMARE” value amounted to 100%. Also, the “Pre-emergence action against STEME” value in [5] was 100%. Also, the “Post-emergence action against AMARE” value in assay [6] came out at 90%. Moreover, in [1], the “Post-emergence action against VIOTR” value was 80%.
